Patent publication US7872018B2, “Compounds and methods for kinase modulation, and indications therefor” (Plexxikon, Inc., priority 2006, dated 2011)

How the values were obtained:
B-Raf = B-Raf (Homo sapiens, UniProt P15056); test: B-Raf kinase activity assay; type: biochemical; settings: under the test conditions employed; read-out: IC50 toward kinase B-Raf
B-Raf V600E = B-Raf V600E (Homo sapiens, UniProt P15056, V600E); test: B-Raf V600E kinase activity assay; type: biochemical; settings: under the test conditions employed; read-out: IC50 toward kinase B-Raf V600E
FGFR = FGFR (Homo sapiens, UniProt P11362); test: FGFR kinase activity assay; type: biochemical; settings: under the test conditions employed; read-out: IC50 toward kinase FGFR
Flt1 = Flt1 (Homo sapiens, UniProt P17948); test: Flt1 kinase activity assay; type: biochemical; settings: under the test conditions employed; read-out: IC50 toward kinase Flt1
Fms = biological target: T1, Fms (Homo sapiens, UniProt P07333); test: Fms biochemical assay (AlphaScreen or 33P-ATP); settings: under the test conditions employed; read-out: IC50 toward kinase Fms
T1 construct: purchased Upstate Biotech 14-551
Text: Each sample was at 5% DMSO.

Kit = biological target: T2, Kit (Homo sapiens, UniProt P10721); test: c-kit biochemical assay (AlphaScreen or 33P-ATP); settings: under the test conditions employed; read-out: IC50 toward kinase Kit
T2 construct: P1332.N6 BI PTP KIT M552-K948-X COD; made in house; host or cells: E. coli BL21(DE3)RIL, co-expressed with PTP1B
Summary of the method: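 Kinase activity read by AlphaScreen or 33P-ATP incorporation, with c-kit enzyme at 1 ng per sample. The enzyme was either commercial or a recombinant human kit construct made from a gene-synthesized coding sequence.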

Kdr = Kdr (Homo sapiens, UniProt P35968); test: Kdr kinase activity assay; type: biochemical; settings: under the test conditions employed; read-out: IC50 toward kinase Kdr
Btk = Btk (Homo sapiens, UniProt Q06187); test: Btk kinase activity assay; type: biochemical; settings: under the test conditions employed; read-out: IC50 toward kinase Btk
Btk, sequence (Q06187 whole entry): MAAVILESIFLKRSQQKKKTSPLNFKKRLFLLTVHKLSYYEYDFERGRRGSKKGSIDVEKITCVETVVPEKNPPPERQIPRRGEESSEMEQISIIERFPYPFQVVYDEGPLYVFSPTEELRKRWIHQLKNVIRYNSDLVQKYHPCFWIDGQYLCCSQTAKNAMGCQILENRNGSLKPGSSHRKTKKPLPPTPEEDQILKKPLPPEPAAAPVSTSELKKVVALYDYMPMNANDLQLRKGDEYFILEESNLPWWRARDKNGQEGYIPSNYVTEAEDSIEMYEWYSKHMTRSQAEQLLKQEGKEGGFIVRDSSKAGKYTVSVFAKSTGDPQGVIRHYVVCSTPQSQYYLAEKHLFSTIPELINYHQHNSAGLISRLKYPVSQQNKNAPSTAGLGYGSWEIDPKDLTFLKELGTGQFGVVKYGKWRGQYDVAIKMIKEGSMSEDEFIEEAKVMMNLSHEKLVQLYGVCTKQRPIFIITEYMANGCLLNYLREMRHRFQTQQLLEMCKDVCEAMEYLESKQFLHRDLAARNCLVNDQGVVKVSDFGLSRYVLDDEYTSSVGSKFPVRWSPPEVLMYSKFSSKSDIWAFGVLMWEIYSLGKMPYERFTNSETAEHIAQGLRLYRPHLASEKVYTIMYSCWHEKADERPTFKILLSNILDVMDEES

B-Raf V600E, sequence (P15056 whole entry V600E): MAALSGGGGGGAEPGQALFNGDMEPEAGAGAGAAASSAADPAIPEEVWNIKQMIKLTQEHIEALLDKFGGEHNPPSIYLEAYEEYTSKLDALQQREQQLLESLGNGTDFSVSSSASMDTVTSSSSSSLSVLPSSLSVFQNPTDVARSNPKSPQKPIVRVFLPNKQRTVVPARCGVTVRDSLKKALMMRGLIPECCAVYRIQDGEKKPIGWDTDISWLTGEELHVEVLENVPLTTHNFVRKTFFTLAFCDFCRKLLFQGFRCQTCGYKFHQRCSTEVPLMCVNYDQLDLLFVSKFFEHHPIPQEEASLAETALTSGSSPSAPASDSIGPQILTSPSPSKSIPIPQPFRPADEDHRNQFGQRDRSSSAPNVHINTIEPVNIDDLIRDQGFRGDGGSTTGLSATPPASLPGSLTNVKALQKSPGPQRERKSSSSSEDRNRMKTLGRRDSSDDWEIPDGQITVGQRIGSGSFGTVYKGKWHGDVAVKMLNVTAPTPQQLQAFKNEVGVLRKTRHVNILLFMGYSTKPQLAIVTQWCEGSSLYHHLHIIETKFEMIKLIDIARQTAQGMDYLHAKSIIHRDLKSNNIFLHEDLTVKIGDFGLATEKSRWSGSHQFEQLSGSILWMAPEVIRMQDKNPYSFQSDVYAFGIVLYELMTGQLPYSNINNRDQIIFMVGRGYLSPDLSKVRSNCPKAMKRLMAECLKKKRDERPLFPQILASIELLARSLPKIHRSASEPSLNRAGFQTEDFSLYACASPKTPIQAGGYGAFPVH
T2 sequence (P10721 552-948): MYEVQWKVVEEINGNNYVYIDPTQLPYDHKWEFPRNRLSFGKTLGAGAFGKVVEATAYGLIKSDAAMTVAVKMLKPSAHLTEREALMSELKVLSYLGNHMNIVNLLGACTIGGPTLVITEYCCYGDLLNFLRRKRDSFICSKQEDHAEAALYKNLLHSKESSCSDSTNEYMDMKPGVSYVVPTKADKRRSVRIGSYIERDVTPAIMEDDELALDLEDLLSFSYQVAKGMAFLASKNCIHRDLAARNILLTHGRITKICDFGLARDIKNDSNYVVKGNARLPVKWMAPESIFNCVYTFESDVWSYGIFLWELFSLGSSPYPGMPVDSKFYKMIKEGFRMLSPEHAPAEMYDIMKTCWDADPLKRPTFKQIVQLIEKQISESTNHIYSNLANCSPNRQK
T1 sequence (P07333 20-972): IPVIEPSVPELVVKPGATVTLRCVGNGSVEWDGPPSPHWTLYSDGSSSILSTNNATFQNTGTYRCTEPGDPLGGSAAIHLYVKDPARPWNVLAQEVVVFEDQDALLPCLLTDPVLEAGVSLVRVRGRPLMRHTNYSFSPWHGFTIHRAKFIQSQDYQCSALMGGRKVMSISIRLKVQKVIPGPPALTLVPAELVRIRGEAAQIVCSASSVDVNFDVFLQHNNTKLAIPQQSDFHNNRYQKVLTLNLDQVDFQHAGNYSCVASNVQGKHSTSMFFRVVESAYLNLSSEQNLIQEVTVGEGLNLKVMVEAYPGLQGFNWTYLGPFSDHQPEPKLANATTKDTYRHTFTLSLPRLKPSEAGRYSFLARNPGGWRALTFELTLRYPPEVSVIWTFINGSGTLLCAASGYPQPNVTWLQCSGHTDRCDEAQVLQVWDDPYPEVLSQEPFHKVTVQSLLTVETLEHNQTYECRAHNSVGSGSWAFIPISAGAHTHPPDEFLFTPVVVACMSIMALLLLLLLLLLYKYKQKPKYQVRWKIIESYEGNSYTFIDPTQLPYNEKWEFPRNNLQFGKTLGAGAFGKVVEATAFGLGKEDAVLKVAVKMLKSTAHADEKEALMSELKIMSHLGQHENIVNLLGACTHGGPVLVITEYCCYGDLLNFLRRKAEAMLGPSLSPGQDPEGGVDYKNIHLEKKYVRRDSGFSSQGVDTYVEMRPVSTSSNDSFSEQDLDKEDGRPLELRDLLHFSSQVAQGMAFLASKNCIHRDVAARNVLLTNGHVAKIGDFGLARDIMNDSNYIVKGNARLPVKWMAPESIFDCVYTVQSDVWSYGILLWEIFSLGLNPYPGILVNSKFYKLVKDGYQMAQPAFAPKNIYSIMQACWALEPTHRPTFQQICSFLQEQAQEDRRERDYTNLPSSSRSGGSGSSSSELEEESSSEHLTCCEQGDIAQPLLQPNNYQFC
B-Raf, sequence (P15056 whole entry): as the sequence (P15056 whole entry V600E) above, with E600V counted along it
FGFR, sequence (P11362 22-822): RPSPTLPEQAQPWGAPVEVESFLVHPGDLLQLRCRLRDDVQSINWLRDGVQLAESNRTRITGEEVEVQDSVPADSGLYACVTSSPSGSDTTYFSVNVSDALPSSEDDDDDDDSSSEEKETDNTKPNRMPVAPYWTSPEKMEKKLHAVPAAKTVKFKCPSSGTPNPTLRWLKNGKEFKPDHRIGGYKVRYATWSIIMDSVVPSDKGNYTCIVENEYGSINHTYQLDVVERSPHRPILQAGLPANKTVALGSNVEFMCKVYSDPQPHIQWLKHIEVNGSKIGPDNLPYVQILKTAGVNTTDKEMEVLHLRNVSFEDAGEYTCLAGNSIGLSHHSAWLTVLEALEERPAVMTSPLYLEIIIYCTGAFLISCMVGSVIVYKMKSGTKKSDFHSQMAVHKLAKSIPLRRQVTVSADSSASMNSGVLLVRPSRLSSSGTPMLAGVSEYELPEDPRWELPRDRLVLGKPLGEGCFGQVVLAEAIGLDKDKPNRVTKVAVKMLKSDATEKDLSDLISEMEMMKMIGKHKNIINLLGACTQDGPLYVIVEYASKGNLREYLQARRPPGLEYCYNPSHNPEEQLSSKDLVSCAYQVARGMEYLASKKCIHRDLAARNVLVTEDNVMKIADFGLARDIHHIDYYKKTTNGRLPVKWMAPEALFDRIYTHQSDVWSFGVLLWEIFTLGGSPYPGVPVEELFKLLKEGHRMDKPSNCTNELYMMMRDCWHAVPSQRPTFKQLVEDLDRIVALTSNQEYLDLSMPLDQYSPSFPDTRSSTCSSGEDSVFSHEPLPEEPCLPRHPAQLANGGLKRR
Kdr, sequence (P35968 20-1356): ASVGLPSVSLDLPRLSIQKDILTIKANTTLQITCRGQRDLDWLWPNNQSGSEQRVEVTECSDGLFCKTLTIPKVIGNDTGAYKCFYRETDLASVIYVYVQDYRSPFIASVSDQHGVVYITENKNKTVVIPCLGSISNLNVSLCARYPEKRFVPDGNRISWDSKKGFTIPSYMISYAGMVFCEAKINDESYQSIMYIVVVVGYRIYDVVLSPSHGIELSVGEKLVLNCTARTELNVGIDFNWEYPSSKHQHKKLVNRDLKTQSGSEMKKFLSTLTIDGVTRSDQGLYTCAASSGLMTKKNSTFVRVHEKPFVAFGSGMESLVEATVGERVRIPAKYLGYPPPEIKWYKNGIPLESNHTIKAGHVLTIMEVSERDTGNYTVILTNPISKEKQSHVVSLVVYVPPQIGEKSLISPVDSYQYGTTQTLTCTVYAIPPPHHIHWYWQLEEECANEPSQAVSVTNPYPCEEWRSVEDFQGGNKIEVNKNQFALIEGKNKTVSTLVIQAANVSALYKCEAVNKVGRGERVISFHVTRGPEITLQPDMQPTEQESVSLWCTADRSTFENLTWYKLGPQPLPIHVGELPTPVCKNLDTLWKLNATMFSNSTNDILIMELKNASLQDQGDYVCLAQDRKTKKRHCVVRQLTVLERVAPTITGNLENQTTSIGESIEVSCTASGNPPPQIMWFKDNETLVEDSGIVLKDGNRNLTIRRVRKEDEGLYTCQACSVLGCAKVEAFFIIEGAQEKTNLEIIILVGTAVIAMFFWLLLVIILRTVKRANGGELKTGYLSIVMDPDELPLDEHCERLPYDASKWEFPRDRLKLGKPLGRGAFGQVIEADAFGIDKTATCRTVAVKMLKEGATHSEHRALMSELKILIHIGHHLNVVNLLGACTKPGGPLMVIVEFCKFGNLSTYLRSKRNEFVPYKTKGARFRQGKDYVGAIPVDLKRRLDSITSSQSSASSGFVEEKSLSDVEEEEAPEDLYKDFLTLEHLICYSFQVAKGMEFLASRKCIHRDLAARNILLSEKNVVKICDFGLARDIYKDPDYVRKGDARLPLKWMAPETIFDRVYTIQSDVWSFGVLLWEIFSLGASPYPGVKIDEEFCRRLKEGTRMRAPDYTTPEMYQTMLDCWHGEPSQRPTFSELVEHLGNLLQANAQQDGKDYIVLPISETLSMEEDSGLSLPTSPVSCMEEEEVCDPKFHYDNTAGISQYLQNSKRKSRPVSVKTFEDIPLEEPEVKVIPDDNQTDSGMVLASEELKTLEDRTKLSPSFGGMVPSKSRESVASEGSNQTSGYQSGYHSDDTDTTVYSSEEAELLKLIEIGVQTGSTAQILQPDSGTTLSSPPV

SMILES	IC50 (B-Raf)	IC50 (B-Raf V600E)	IC50 (FGFR)	IC50 (Flt1)	IC50 (Fms)	IC50 (Kit)	IC50 (Kdr)	IC50 (Btk)
O=C(c1c(F)ccc(OCc2ccccc2)c1F)c1c[nH]c2ncc(-c3cccnc3)cc12 [P-1467, (3-Benzyloxy-2,6-difluorophenyl)-(5-pyridin-3-yl-1H-pyrrolo[2,3-b]pyridin-3-yl)-methanone]	≤ 10 µM	≤ 10 µM	≤ 10 µM	≤ 10 µM	≤ 10 µM	≤ 10 µM	–	–
CCOc1c(OCc2ccc(N3CCCC3)nc2)cccc1C(=O)c1c[nH]c2ncccc12 [P-2144, [2-Ethoxy-3-(6-pyrrolidin-1-yl-pyridin-3-ylmethoxy)-phenyl]-(1H-pyrrolo[2,3-b]pyridin-3-yl)-methanone]	≤ 10 µM	–	–	–	≤ 10 µM	–	–	≤ 10 µM
COc1cnc2[nH]cc(C(=O)c3c(F)ccc(OCc4ccccc4)c3F)c2c1 [P-1597, (3-Benzyloxy-2,6-difluoro-phenyl)-(5-methoxy-1H-pyrrolo[2,3-b]pyridin-3-yl)-methanone]	≤ 10 µM	≤ 10 µM	≤ 10 µM	≤ 10 µM	≤ 10 µM	–	–	–
COCCOc1ccc(F)c(C(=O)c2c[nH]c3ncc(OC)cc23)c1F [P-1584, [2,6-Difluoro-3-(2-methoxy-ethoxy)-phenyl]-(5-methoxy-1H-pyrrolo[2,3-b]pyridin-3-yl)-methanone]	≤ 10 µM	≤ 10 µM	≤ 10 µM	≤ 10 µM	–	–	–	–
COc1cc(Cc2c[nH]c3ncc(Cl)cc23)ccc1OCc1ccc(Cl)cc1 [P-1532, 5-Chloro-3-[4-(4-chloro-benzyloxy)-3-methoxy-benzyl]-1H-pyrrolo[2,3-b]pyridine]	≤ 10 µM	≤ 10 µM	–	≤ 10 µM	≤ 10 µM	≤ 10 µM	–	–
Cc1nc(C)c(COc2cccc(C(=O)c3c[nH]c4ncc(Cl)cc34)c2OCC2CC2)s1 [P-2140, (5-Chloro-1H-pyrrolo[2,3-b]pyridin-3-yl)-[2-cyclopropylmethoxy-3-(2,4-dimethyl-thiazol-5-ylmethoxy)-phenyl]-methanone]	–	–	–	–	≤ 10 µM	≤ 10 µM	–	≤ 10 µM

The remaining lines, values ahead:

IC50 (B-Raf)	IC50 (B-Raf V600E)	IC50 (FGFR)	IC50 (Flt1)	IC50 (Fms)	IC50 (Kit)	IC50 (Kdr)	IC50 (Btk)	SMILES
≤ 10 µM	≤ 10 µM	–	≤ 10 µM	≤ 10 µM	≤ 10 µM	≤ 10 µM	–	Cn1ccnc1COc1ccc(F)c(C(=O)c2c[nH]c3ncc(Cl)cc23)c1F [P-2165, (5-Chloro-1H-pyrrolo[2,3-b]pyridin-3-yl)-[2,6-difluoro-3-(1-methyl-1H-imidazol-2-ylmethoxy)-phenyl]-methanone]
–	–	≤ 10 µM	–	≤ 10 µM	≤ 10 µM	≤ 10 µM	–	COCCOc1ccc(F)c(C(=O)c2c[nH]c3ncc(Cl)cc23)c1Cl [P-2159, [2-Chloro-6-fluoro-3-(2-methoxy-ethoxy)-phenyl]-(5-chloro-1H-pyrrolo[2,3-b]pyridin-3-yl)-methanone]
–	–	–	–	≤ 10 µM	≤ 10 µM	≤ 10 µM	≤ 10 µM	Cc1nc(C)c(COc2ccc(F)c(C(=O)c3c[nH]c4ncc(Cl)cc34)c2F)s1 [P-2162, (5-Chloro-1H-pyrrolo[2,3-b]pyridin-3-yl)-[3-(2,4-dimethyl-thiazol-5-ylmethoxy)-2,6-difluoro-phenyl]-methanone]
–	–	≤ 10 µM	–	≤ 10 µM	≤ 10 µM	≤ 10 µM	–	COCCOc1ccc(F)c(C(=O)c2c[nH]c3ncccc23)c1Cl [P-2160, [2-Chloro-6-fluoro-3-(2-methoxy-ethoxy)-phenyl]-(1H-pyrrolo[2,3-b]pyridin-3-yl)-methanone]
–	–	–	–	≤ 10 µM	≤ 10 µM	≤ 10 µM	≤ 10 µM	O=C(c1c(F)ccc(OCc2ccc(C(F)(F)F)nc2)c1F)c1c[nH]c2ncc(Cl)cc12 [P-2163, (5-Chloro-1H-pyrrolo[2,3-b]pyridin-3-yl)-[2,6-difluoro-3-(6-trifluoromethyl-pyridin-3-ylmethoxy)-phenyl]-methanone]
